Assay results from patent US20100292185A1, “BETA-LACTAMASE INHIBITORS” (priority 2009, published 2010).
Where a name gives a salt, the structure may show the parent alone.

Assays:
SHV-5 β-lactamase = target: T1, SHV-5 β-lactamase (Klebsiella pneumoniae, UniProt P0A3M1); test: β-lactamase enzyme inhibition assay (nitrocefin substrate), SHV-5; format: biochemical
T1 construct: expressed as native untagged proteins; made in house; host or cells: E. coli BL21(DE3)
Procedure, shortened: (§1)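 Native untagged enzymes were expressed in E. coli BL21(DE3) and purified by cation exchange and gel filtration. Compounds (100–0.005 μM in PBS pH 7.0) were preincubated with enzyme for 10 min at 37 °C, then 100 μM nitrocefin (final) was added. IC50 was derived from the maximum hydrolysis rate at 486 nm, read kinetically for 10 min, relative to uninhibited controls.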

CTX-M15 β-lactamase = target: T2, CTX-M15 β-lactamase (Escherichia coli, UniProt Q9EXV5); test: β-lactamase enzyme inhibition assay (nitrocefin substrate), CTXM-15; format: biochemical
T2 construct: expressed as native untagged proteins; made in house; host or cells: E. coli BL21(DE3)
T2 sequence (Q9EXV5 entry or part of it): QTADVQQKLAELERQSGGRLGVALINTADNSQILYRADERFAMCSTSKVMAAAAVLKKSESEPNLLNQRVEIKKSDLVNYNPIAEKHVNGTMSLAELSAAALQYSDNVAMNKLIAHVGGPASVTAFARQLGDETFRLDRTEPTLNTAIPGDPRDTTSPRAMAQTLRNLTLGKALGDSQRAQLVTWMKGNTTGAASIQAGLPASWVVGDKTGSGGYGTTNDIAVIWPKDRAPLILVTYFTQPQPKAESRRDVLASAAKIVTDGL
Procedure, shortened: as §1

p99 AmpC β-lactamase = target: T3, p99 AmpC β-lactamase (Enterobacter cloacae, UniProt P05364); test: β-lactamase enzyme inhibition assay (nitrocefin substrate), P99 AmpC; format: biochemical; conditions: nitrocefin 100 μM, 37° C., PBS pH 7.0; read-out: P99 AmpC IC50
T3 construct: expressed as native untagged proteins; made in house; host or cells: E. coli BL21(DE3)
T3 sequence (P05364 21-381): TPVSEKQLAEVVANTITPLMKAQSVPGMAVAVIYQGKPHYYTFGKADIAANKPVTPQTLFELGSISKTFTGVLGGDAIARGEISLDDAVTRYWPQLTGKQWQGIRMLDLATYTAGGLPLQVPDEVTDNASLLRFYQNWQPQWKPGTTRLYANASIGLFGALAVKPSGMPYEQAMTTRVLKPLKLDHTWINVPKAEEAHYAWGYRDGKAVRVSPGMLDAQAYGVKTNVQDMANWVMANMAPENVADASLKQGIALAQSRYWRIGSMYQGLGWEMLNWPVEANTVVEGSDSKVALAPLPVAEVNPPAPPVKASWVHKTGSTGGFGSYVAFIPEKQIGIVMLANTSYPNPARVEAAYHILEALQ
Procedure, shortened: as §1

KPC-2 β-lactamase = target: T4, KPC-2 β-lactamase (Klebsiella pneumoniae, UniProt Q9F663); test: β-lactamase enzyme inhibition assay (nitrocefin substrate), KPC-2; format: biochemical
T4 construct: expressed as native untagged proteins; made in house; host or cells: E. coli BL21(DE3)
T4 sequence (Q9F663 25-293 limits assumed): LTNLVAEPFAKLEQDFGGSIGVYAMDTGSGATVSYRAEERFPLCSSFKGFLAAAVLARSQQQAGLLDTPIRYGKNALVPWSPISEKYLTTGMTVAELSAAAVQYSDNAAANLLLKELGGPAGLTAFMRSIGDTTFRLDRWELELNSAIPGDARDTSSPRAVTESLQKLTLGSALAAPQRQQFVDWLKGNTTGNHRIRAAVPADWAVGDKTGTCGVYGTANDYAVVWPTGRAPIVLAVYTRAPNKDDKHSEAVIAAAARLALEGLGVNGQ
Procedure, shortened: as §1

[1] = target: T5, VIM-2 metallo β-lactamase (Pseudomonas aeruginosa, UniProt Q9K2N0); test: β-lactamase enzyme inhibition assay (nitrocefin substrate), VIM-2; format: biochemical; conditions: nitrocefin 100 μM, 37° C., PBS pH 7.0; read-out: VIM-2 IC50
T5 construct: made in house
Procedure, shortened: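 VIM-2 was expressed untagged in E. coli BL21(DE3) and purified by two Q sepharose anion-exchange runs plus gel filtration to >90% purity. Compounds at 100–0.005 μM in PBS pH 7.0 were preincubated with enzyme for 10 min at 37° C, then nitrocefin was added at 100 μM final. Hydrolysis was followed kinetically at 486 nm for 10 min; IC50 is the concentration halving the initial rate relative to no-inhibitor wells.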

OXA-23 β-lactamase = target: T6, OXA-23 β-lactamase (Acinetobacter baumannii, UniProt Q9L4P2); test: β-lactamase enzyme inhibition assay (nitrocefin substrate), OXA-23 crude extract; format: biochemical; conditions: nitrocefin 100 μM, 37° C., PBS pH 7.0; read-out: OXA-23 IC50
T6 construct: crude β-lactamase extracts were prepared from 20 ml overnight cultures; endogenous in cells; host or cells: Acinetobacter baumannii cells containing OXA-23 (crude freeze-thaw extract)
T6 sequence (Q9L4P2 18-273): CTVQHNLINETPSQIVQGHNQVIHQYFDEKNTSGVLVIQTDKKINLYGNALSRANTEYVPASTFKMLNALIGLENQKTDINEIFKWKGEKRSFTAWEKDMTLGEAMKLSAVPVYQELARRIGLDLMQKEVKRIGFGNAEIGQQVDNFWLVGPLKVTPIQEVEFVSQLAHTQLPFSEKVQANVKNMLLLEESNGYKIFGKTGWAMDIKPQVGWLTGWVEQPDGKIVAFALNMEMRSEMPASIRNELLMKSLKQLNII
Procedure, shortened: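 Crude enzyme came from freeze-thaw extracts of mid-log OXA-23-carrying A. baumannii grown in MH-II broth at 37° C. Inhibitors (100–0.005 μM in PBS pH 7.0) were preincubated with the enzyme for 10 min at 37° C, then 100 μM nitrocefin (final) was added and read kinetically at 486 nm for 10 min. IC50 was taken from initial hydrolysis rates relative to uninhibited controls.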

[2] = tested on: E. coli expressing the Class A ESBL SHV-5; test: In vitro antibacterial assay of β-lactamase inhibition (broth microdilution MIC), E. coli SHV-5; format: cell-based; conditions: in presence of Ceftazidime 8 μg/ml (Examples 1-56)
Procedure, shortened: (§2)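 MIC read by eye after 16-20 h at 37° C. Compounds were titrated 2-fold from 8 μg/mL down to 0.015 μg/mL (final) in CAMHB with a β-lactam antibiotic, and wells were inoculated per CLSI with strains grown 3-5 h under 50 μg/mL ampicillin.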

[3] = tested on: K. pneumoniae expressing the Class A Extended Spectrum Beta-Lactamase (ESBL) CTX-M-15; test: In vitro antibacterial assay of β-lactamase inhibition (broth microdilution MIC), K. pneumoniae CTX-M-15; format: cell-based; conditions: in presence of Ceftazidime 8 μg/ml (Examples 1-56)
Procedure, shortened: as §2

[4] = tested on: E. cloacae expressing the Class C P99+; test: In vitro antibacterial assay of β-lactamase inhibition (broth microdilution MIC), E. cloacae P99+; format: cell-based; conditions: in presence of Ceftazidime 8 μg/ml (Examples 1-56)
Procedure, shortened: as §2

[5] = tested on: K. pneumoniae expressing the Class A carbapenemase KPC-2; test: microbe, parasite or virus in culture; format: cell-based; conditions: in presence of Ceftazidime 8 μg/ml (Examples 1-56)
Procedure, shortened: as §2

[6] = tested on: P. aeruginosa expressing the Class B metallo β-lactamase VIM-2; test: In vitro antibacterial assay of β-lactamase inhibition (broth microdilution MIC), P. aeruginosa VIM-2; format: cell-based; conditions: in presence of Ceftazidime 16 μg/mL (Examples 1-56)
Procedure, shortened: as §2

T1 sequence (P0A3M1 22-286): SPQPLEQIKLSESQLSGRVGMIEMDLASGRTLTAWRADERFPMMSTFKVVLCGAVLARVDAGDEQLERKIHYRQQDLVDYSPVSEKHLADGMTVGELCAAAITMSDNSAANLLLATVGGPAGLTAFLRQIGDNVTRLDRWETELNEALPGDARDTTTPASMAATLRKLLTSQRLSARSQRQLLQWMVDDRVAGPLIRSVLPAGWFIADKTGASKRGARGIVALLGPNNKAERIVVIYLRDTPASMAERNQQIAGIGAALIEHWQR

SMILES	IC50 (SHV-5 β-lactamase) [nM]	IC50 (CTX-M15 β-lactamase) [nM]	IC50 (p99 AmpC β-lactamase) [nM]	IC50 (KPC-2 β-lactamase) [nM]	IC50 [1] [nM]	IC50 (OXA-23 β-lactamase) [nM]	MIC of example compound, E. coli SHV-5 [2] [µg/mL]	MIC of example compound, K. pneumoniae CTX-M-15 [3] [µg/mL]	MIC of example compound, E. cloacae P99+ [4] [µg/mL]	MIC of example compound, K. pneumoniae KPC-2 [5] [µg/mL]	MIC of example compound, P. aeruginosa VIM-2 [6] [µg/mL]
NCCNCc1cccc(C(=O)N[C@@H](Cc2cccc(C(=O)O)c2O)B(O)O)c1 [Example 18, (1R)-[3-{(2-aminoethylamino)-methyl}-benzoylamino]-(3-carboxy-2-hydroxy)benzyl-methylboronic acid formate]	257	1	0.3	14	99	41	8	0.5	0.25	0.06	>8
O=C(N[C@@H](Cc1cccc(C(=O)O)c1O)B(O)O)c1cccc(CNCc2cccnc2)c1 [Example 19, (1R)-(3-{[(pyridin-3-ylmethyl)amino]methyl}-benzoylamino)-(3-carboxy-2-hydroxy)benzyl-methylboronic acid formate]	54	1	0.2	6	510	19	8	2	2	0.12	>8
O=C(N[C@@H](Cc1cccc(C(=O)O)c1O)B(O)O)c1cccc(CN2CCNCC2)c1 [Example 20, (1R)-(3-piperazin-1-ylmethyl-benzoylamino-(3-carboxy-2-hydroxy)benzyl-methylboronic acid formate]	42	20	0.3	9	179	22	4	1	2	0.03	>8
CNCc1cccc(C(=O)N[C@@H](Cc2cccc(C(=O)O)c2O)B(O)O)c1 [Example 21, (1R)-(3-methylaminomethyl-benzoylamino)-(3-carboxy-2-hydroxy)benzyl-methylboronic acid formate]	830	3	2	19	142	33	4	1	0.25	0.01	>8
Cc1cc(NCc2cccc(C(=O)N[C@@H](Cc3cccc(C(=O)O)c3O)B(O)O)c2)no1 [Example 28, (1R)-[3-{(5-methyl-isoxazol-3-ylamino)-methyl}-benzoylamino]-(3-carboxy-2hydroxy)benzyl-methylboronic acid formate]	15	0.7	0.2	4	304	9	8	4	2	2	>8
NCc1cccc(CC(=O)N[C@@H](Cc2cccc(C(=O)O)c2O)B(O)O)c1 [Example 29, (1R)-[2-(3-aminomethyl-phenyl)-acetylamino]-(3-carboxy-2hydroxy)benzyl-methylboronic acid formate]	5	9	6	16	882	591	0.5	0.12	0.12	0.03	>8
NCc1ccc(CC(=O)N[C@@H](Cc2cccc(C(=O)O)c2O)B(O)O)cc1 [Example 30, (1R)-[2-(4-aminomethyl-phenyl)-acetylamino]-(3-carboxy-2hydroxy)benzyl-methylboronic acid formate]	3	7	12	9	271	252	0.5	0.06	0.12	0.01	>8
O=C(N[C@@H](Cc1cccc(C(=O)O)c1O)B(O)O)c1cccc(CNc2nccs2)c1 [Example 31, (1R)-[3-(thiazol-2-ylaminomethyl)-benzoylamino]-(3-carboxy-2-hydroxy)benzyl-methylboronic acid]	13	0.5	0.6	3	295	10	8	4	2	0.25	>8
CC(=O)NCc1ccc(CC(=O)N[C@@H](Cc2cccc(C(=O)O)c2O)B(O)O)cc1 [Example 32, (1R)-[2-(4-acetylaminomethyl-phenyl)-acetylamino]-(3-carboxy-2hydroxy)benzyl-methylboronic acid]	0.3	2	2	4	> 1000	116	0.5	0.5	>8	4	>8
CNCc1ccc(CC(=O)N[C@@H](Cc2cccc(C(=O)O)c2O)B(O)O)cc1 [Example 33, (1R)-[2-(4-methylaminomethyl-phenyl)-acetylamino]-(3-carboxy-2hydroxy)benzyl-methylboronic acid formate]	5	8	7	12	336	379	0.5	0.12	0.25	0.06	>8
O=C(Cc1ccc(CNCCO)cc1)N[C@@H](Cc1cccc(C(=O)O)c1O)B(O)O [Example 34, (1R)-[2-{4-((2-hydroxy-ethylamino)-methyl)-phenyl}-acetylamino]-(3-carboxy-2hydroxy)benzyl-methylboronic acid formate]	5	7	4	18	580	256	0.5	0.12	0.5	0.03	>8
NCCNCc1ccc(CC(=O)N[C@@H](Cc2cccc(C(=O)O)c2O)B(O)O)cc1 [Example 35, (1R)-[2-{4-((2-amino-ethylamino)-methyl)-phenyl}-acetylamino]-(3-carboxy-2hydroxy)benzyl-methylboronic acid formate]	2	7	5	17	196	97	0.5	0.25	0.25	0.03	>8
